10 compounds from patent US8362008B2 (The University Of Edinburgh, priority 2007, dated 2013) can be followed below.

The target of test [1] is T1, human 11β-HSD1 enzyme (Homo sapiens, UniProt P28845).
T1 construct: stably transfected with a construct containing the full-length gene coding for the human 11β-HSD1 enzyme; expressed in transfected cells; host or cells: HEK293 (HEK293/11β-HSD1 cells)
As to the kind of experiment: Cellular in vitro 11β-HSD1 enzyme inhibition assay (SPA, HEK293/11β-HSD1 cells). Type of test: cell-based. A digest of the protocol:
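Stably transfected HEK293 cells expressing full-length human 11β-HSD1 were plated 24 h, then incubated with compound 2 h at 37 °C; cortisol formed was quantified by SPA with anti-cortisol antibody. Percent inhibition used no-cell (minimum) and no-compound (maximum) wells; IC50 from four-parameter logistic fit.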

Test [2] has as its target T2, human 11β-HSD2 (Homo sapiens, UniProt P80365).
T2 construct: CHO cells stably transfected with the full-length gene coding for human 11β-HSD2 were used; expressed in transfected cells; host or cells: CHO
T2 sequence (P80365 1-405): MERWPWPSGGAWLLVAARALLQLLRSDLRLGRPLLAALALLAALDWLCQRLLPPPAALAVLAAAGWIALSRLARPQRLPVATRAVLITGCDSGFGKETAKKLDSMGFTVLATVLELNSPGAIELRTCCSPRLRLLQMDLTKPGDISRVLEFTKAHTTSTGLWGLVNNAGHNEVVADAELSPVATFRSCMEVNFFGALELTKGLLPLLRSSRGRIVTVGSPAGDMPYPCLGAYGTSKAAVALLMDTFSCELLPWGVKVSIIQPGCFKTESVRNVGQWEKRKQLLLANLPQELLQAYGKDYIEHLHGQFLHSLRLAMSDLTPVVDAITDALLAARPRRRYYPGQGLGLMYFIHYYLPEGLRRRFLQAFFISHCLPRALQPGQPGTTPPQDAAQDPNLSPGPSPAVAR
Nature of the test: Cellular in vitro 11β-HSD2 enzyme inhibition assay (CHO cells, TLC/phosphoimager). Type of test: cell-based. The note with it: CHO cells stably transfected with human 11β-HSD2; Table 1. Here is the method:
Cellular In Vitro 11β-HSD2 Enzyme Inhibition Assay
For measurement of inhibition of 11β-HSD2, CHO cells stably transfected with the full-length gene coding for human 11β-HSD2 were used. Assays were carried out in 96-well microplates containing 1×10^5 cells/well. Controls and compounds were plated as above, so that the final DMSO concentration in each well was 1%. To initiate the assay, 90 μL of a solution of HAMS F-12 medium containing 1% glutamine, 1% penicillin and streptomycin, and 22 nM tritiated cortisol was added to each well of the assay plate. The plate was then incubated in 5% CO2, 95% O2 at 37° C. for 16 hours.
The assay solutions were transferred to glass tubes and 20 μL ethyl acetate added to each tube. Each tube was vortexed thoroughly and the upper layer containing the tritiated steroid transferred to a fresh glass tube. The solvent was evaporated by placing the tubes in a heating block at 65° C. under a stream of Nitrogen gas. 20 μL ethanol was added to each of the dried samples and vortexed briefly. Each sample was applied to a silica TLC plate and the plate dried. The plate was placed vertically in a glass tank containing 92% chloroform:8% ethanol and the solvent allowed to rise up the plate. The plate was dried, placed in an imaging cassette, and overlayed with a tritium imaging plate for 1-2 days. The amount of enzyme inhibition in each sample was determined by measuring the intensity of the substrate and product spots using a phosphoimager.
IC50 values for inhibitors were determined as described for 11β-HSD1.

Setting [3] is: HEK293 cells stably transfected with human 11β-HSD1, Table 1.
Where [4] appears, read: HEK293, less than or equal to 1000 nM (1 μM).

pIC50: −log10 of the molar value.

T1 sequence (P28845 whole entry): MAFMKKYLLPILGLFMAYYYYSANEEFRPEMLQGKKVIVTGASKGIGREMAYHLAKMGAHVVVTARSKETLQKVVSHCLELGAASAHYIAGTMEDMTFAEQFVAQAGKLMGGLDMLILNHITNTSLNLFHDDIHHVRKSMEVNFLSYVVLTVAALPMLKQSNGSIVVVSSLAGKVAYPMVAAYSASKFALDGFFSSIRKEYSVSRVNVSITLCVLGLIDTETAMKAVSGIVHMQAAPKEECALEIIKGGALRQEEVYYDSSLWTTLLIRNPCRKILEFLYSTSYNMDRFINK

Take `O=C(c1csc(C2CCNCC2)c1)N1CCC[C@@H]2CCCC[C@@H]21` (single isomer, unassigned) [CC-033, cis-(octahydro-quinolin-1-yl)-(5-piperidin-4-yl-thiophen-3-yl)-methanone]: the pIC50 (as a rule, −log10 of the IC50, conventionally taken in molar units) is 6.90 in test [1] (setting [3]) and less than 5.00 in test [2].

For the compound `CCc1cc(C(=O)N2CCCCC2)c(Cl)s1` [AA-001, (2-Chloro-5-ethyl-thiophen-3-yl)-piperidin-1-yl-methanone], the figures for the pIC50 in test [1] (setting [4]), in test [1] (setting [3]) and in test [2] were no less than 6.00, 6.55 and less than 5.00, respectively.

On to `CCc1cc(C(=O)N2CC3(C)CC2CC(C)(C)C3)cs1` (centres unmarked) [AA-014, (5-Ethyl-thiophen-3-yl)-(1,3,3-trimethyl-6-aza-bicyclo[3.2.1]oct-6-yl)-methanone], for which the negative logarithm of the IC50 (pIC50) was no less than 6.00 in test [1] (setting [4]), 8.40 in test [1] (setting [3]) and less than 5.00 in test [2].

With `COCc1cc(C(=O)N2CCCC3(CCCCC3)C2)cs1` [BB-007], the values for the pIC50 in test [1] (setting [4]), in test [1] (setting [3]) and in test [2] were no less than 6.00, 7.17 and less than 5.00, respectively.

`CC1(C)CCCN(C(=O)c2csc(C3CCOCC3)c2)C1` [CC-003]: the pIC50 is no less than 6.00 in test [1] (setting [4]), 6.82 in test [1] (setting [3]) and less than 5.00 in test [2].

For `CNC(=O)N1CCC(c2cc(C(=O)N3CCCC4CCCCC43)cs2)CC1` (centres unmarked) [CC-106], the pIC50 in test [1] (setting [4]) was no less than 6.00; in test [1] (setting [3]) it was 7.02; in test [2], less than 5.00.

For the compound `COC(=O)N1CCC(c2cc(C(=O)N3CCCCC3c3ccccc3)cs2)CC1` (centres unmarked) [CC-119], the pIC50 in test [1] (setting [4]) is no less than 6.00; in test [1] (setting [3]), 7.21; in test [2], less than 5.00.

As for `CS(=O)(=O)NCCNC(=O)N1CCC(c2cc(C(=O)N3CCCC4CCCCC43)cs2)CC1` (stereo not drawn) [CC-168, cis-4-[4-(Octahydro-quinoline-1-carbonyl)-thiophen-2-yl]-piperidine-1-carboxylic acid(2-methanesulfonylamino-ethyl)-amide], the pIC50 in test [1] (setting [4]) was no less than 6.00; in test [1] (setting [3]), 7.11; in test [2], less than 5.00.

As to `CC1(C)CCCN(C(=O)c2csc(C3CCN(C(=O)NCCO)CC3)c2)CC1` [CC-175], the pIC50 is no less than 6.00 in test [1] (setting [4]), 7.64 in test [1] (setting [3]) and less than 5.00 in test [2].

Consider `O=C(c1csc(C2CCCCC2)c1)N1CCCCCC1` [DD-002, Azepan-1-yl-(5-cyclohexyl-thiophen-3-yl)-methanone], for which the pIC50 in test [1] (setting [4]) is no less than 6.00; in test [1] (setting [3]) it was 6.05; in test [2], less than 5.00.
